# Measured values taken from patent US7795226B2, “Control of radiation injury” (Biotempt B.V., priority 2006, dated 2010).
# “And” between values parts separate entries of the source, which are not always exact repeats. Identical values can stand only once.
# What was measured:
# [1] = tested on: BALB/c mice exposed whole body to 10 Gy 137Cs-γ-irradiation; assay: Whole body γ-irradiation (10 Gy), peptide 1.5 hours before irradiation; format: in vivo; conditions: 10 mg/kg i.p. 1.5 hours before 10 Gy; for Watery eyes / Weight loss: affected/total; for Mortality: dead/total
# Description: (§1) In the first experiment, 12-week-old female BALB/c mice were treated intraperitoneally with a single injection of either PBS (n=9) or with a peptide (LQGV (SEQ ID NO:117), VLPALP (SEQ ID NO:140), LPGCPRGVNPVVS (SEQ ID NO:114), MTRVLQGVLPALPQVVC (SEQ ID NO:113); n=8, 10 mg/kg). One and a half hours after the treatment, mice were exposed whole body to a single dose of 10 Gy ^137Cs-γ-irradiation. In the second experiment, 12-week-old female BALB/c mice were first exposed whole body to a single dose of 10 Gy ^137Cs-γ-irradiation and then 1.5 hours after the irradiation treated intraperitoneally with a single injection of either PBS (n=9) or with a peptide (n=8 or 9, 10 mg/kg).
# [2] = tested on: BALB/c mice exposed whole body to 10 Gy 137Cs-γ-irradiation; assay: Whole body γ-irradiation (10 Gy), peptide 1.5 hours after irradiation; format: in vivo; conditions: 10 mg/kg i.p. 1.5 hours after 10 Gy; for Watery eyes / Weight loss: affected/total; for Mortality: dead/total
# Description: as §1
# [3] = tested on: LPS-induced septic shock in mice; conditions: single treatment after high dose LPS injection; cited from earlier work
# [4] = tested on: LPS-induced septic shock in mice; assay: comparative trial MTR and AQGV from two sources, LPS sickness scores; format: in vivo; parameters: key to Sickness Score, individual mouse: 0: No abnormalities.; 1: Percolated fur, but no detectable behavior differences compared to normal mice.; 2: Percolated fur, huddle reflex, responds to stimuli (such as tap on cage), just as active during handling as healthy mouse.; 3: Slower response to tap on cage, passive or docile when handled, but still curious when alone in a new setting.; 4: Lack of curiosity, little or no response to stimuli, quite immobile.; 5: Labored breathing, inability or slow to self-right after being rolled onto back (moribund, sacrificed).; Dead; conditions: LPS 10-11 mg/kg; for Survival %: group of six
# Text: Mice were scored for sickness severity using the following measurement scheme: • 0 No abnormalities. • 1 Percolated fur, but no detectable behavior differences compared to normal mice. • 2 Percolated fur, huddle reflex, responds to stimuli (such as tap on cage), just as active during handling as healthy mouse. • 3 Slower response to tap on cage, passive or docile when handled, but still curious when alone in a new setting. • 4 Lack of curiosity, little or no response to stimuli, quite immobile. • 5 Labored breathing, inability or slow to self-right after being rolled onto back (moribund, sacrificed). • D Dead.
# A comparative trial was set up to compare peptide MTR and AQGV (SEQ ID NO:120), each obtained from two commercial sources. The comparative trial comprised six groups of six animals; two groups (1A and 1B) receiving placebo (PBS), one group ([…]), one group (3) receiving peptide MTR (source Ansynth), one group (4) receiving peptide AQGV (SEQ ID NO:120) (source Pepscan) and one group (5) receiving peptide AQGV (SEQ ID NO:120) (source Ansynth). Peptide/placebo in these groups was administered two hours after LPS. LPS (source) was used at 10 to 11 mg/kg. Sickness scores were done at 0, 2, 22, 26, 42, and 48 hours after LPS injection.
# Comparative trial MTR and AQGV (SEO ID NO:120), each derived from two sources, all at 5 mg/kg.
# [5] = tested on: mice after Whole Body Irradiation; assay: Dose Reduction Factor (DRF) test, escalating WBI doses; format: in vivo; conditions: for Percent alive at day 30 / Percent dead at day 30 / The absolute number of animals alive at 30 days post WBI: 10 mg/kg s.c. single dose at day 3
# Description: Escalating doses of Whole Body Irradiation (WBI), with one single exposure given to any particular cohort, and the exposure dose going progressively higher, for each subsequent cohort. A single dose of peptide EA-230 (AQGV (SEQ ID NO:120)) was administered subcutaneously, but with treatment delayed until three days (72 hours) after the WBI. The test is called the Dose Reduction Factor (“DRF”), which is defined as ratio between the LD50 of the treated group to the LD50 of the control group. The LD50 refers to that dose which is lethal to 50% of the animals tested. An acceptable DRF value is 1.20.
# In this example we report on escalating dose studies of Whole Body Irradiation (WBI) with one single exposure given to any particular cohort, and the exposure dose going progressively higher for each subsequent cohort. A single dose of peptide AQGV (SEO ID NO:120) (10 mg/kg) was administered subcutaneously, but with treatment delayed until three days (72 hours) after the WBI. The test is called the Dose Reduction Factor (“DRF”), which is defined as ratio between the LD50 of the treated group to the LD50 of the control group. The LD50 refers to that dose which is lethal to 50% of the animals tested.
# An acceptable DRF ratio is a factor of at least 1.10; but preferred is at least 1.20 or even at least 1.25.
# [6] = 0 hours (LPS treatment), peptide from Ansynth (#Ansynth 12, #Ansynth 46) 5 mg/kg
# [7] = 0 hours (LPS treatment), peptide from Diosynth BV (#970, #971) 5 mg/kg
# [8] = 2 hours (compound treatment), peptide from Ansynth (#Ansynth 12, #Ansynth 46) 5 mg/kg
# [9] = 2 hours (compound treatment), peptide from Diosynth BV (#970, #971) 5 mg/kg
# [10] = 22 hours, peptide from Ansynth (#Ansynth 12, #Ansynth 46) 5 mg/kg
# [11] = 22 hours, peptide from Diosynth BV (#970, #971) 5 mg/kg
# [12] = 26 hours, peptide from Ansynth (#Ansynth 12, #Ansynth 46) 5 mg/kg
# [13] = 26 hours, peptide from Diosynth BV (#970, #971) 5 mg/kg
# [14] = 42 hours, peptide from Ansynth (#Ansynth 12, #Ansynth 46) 5 mg/kg
# [15] = 42 hours, peptide from Diosynth BV (#970, #971) 5 mg/kg
# [16] = 48 hours, peptide from Ansynth (#Ansynth 12, #Ansynth 46) 5 mg/kg
# [17] = 48 hours, peptide from Diosynth BV (#970, #971) 5 mg/kg
# [18] = peptide from Ansynth (#Ansynth 12, #Ansynth 46) 5 mg/kg
# [19] = peptide from Diosynth BV (#970, #971) 5 mg/kg
substance,measurement,setting,value
VLPALP (hexamer peptide),Watery eyes,[1]; day 0 after irradiation,0/8
same,Weight loss,[1]; day 0 after irradiation,0/8
same,Mortality,[1]; day 0 after irradiation,0/8
same,Mortality,[1]; day 3 after irradiation,0/8
same,Watery eyes,[1]; day 4 after irradiation,0/8
same,Weight loss,[1]; day 4 after irradiation,8/8
same,Mortality,[1]; day 4 after irradiation,0/8
same,Mortality,[1]; day 5 after irradiation,0/8
same,Mortality,[1]; day 6 after irradiation,7/8
same,Mortality,[1]; day 7 after irradiation,8/8
same,Watery eyes,[2]; day 0 after irradiation,0/9
same,Weight loss,[2]; day 0 after irradiation,0/9
same,Mortality,[2]; day 0 after irradiation,0/9
same,Mortality,[2]; day 3 after irradiation,0/9
same,Watery eyes,[2]; day 4 after irradiation,0/9
same,Weight loss,[2]; day 4 after irradiation,9/9
same,Mortality,[2]; day 4 after irradiation,0/9
same,Mortality,[2]; day 5 after irradiation,0/9
same,Mortality,[2]; day 6 after irradiation,3/9
same,Mortality,[2]; day 7 after irradiation,9/9
same,septic shock in mice (in words),[3],inhibited septic shock in mice
AQGV,"Sickness Score, individual mouse",[4]; [6],0
same,"Sickness Score, individual mouse",[4]; [7],0
same,"Sickness Score, individual mouse",[4]; [8],2
same,"Sickness Score, individual mouse",[4]; [9],2
same,"Sickness Score, individual mouse",[4]; [10],3 (2×) and 2 (3×) and 4
same,"Sickness Score, individual mouse",[4]; [11],2 (4×) and 3 and 4
same,"Sickness Score, individual mouse",[4]; [12],3 (2×) and 2 (3×) and 4
same,"Sickness Score, individual mouse",[4]; [13],2 (3×) and 3 (2×) and 5
same,"Sickness Score, individual mouse",[4]; [14],2 and 3 and 1 (3×) and 5
same,"Sickness Score, individual mouse",[4]; [15],2 (5×) and dead
same,"Sickness Score, individual mouse",[4]; [16],1 (5×) and dead
same,"Sickness Score, individual mouse",[4]; [17],2 (3×) and 1 (2×)
same,Survival %,[4]; [18],83%
same,Survival %,[4]; [19],83%
same,Dose Reduction Factor (factor by which the radiation dose has to be increased to kill 50% of the animals),"[5]; 10 mg/kg s.c. single dose 72 hours after WBI, LD50 treated / LD50 control",1.25
same,radiation dose that kills 50% of the treated animals (LD50),"[5]; 10 mg/kg s.c. single dose 72 hours after WBI, day 30",~10.4 Gy
same,Percent alive at day 30,[5]; WBI 8.6 Gy,100%
same,Percent dead at day 30,[5]; WBI 8.6 Gy,0%
same,The absolute number of animals alive at 30 days post WBI,[5]; WBI 8.6 Gy,20
same,Percent alive at day 30,[5]; WBI 9.2 Gy,100%
same,Percent dead at day 30,[5]; WBI 9.2 Gy,0%
same,The absolute number of animals alive at 30 days post WBI,[5]; WBI 9.2 Gy,10
same,Percent alive at day 30,[5]; WBI 9.8 Gy,100%
same,Percent dead at day 30,[5]; WBI 9.8 Gy,0%
same,The absolute number of animals alive at 30 days post WBI,[5]; WBI 9.8 Gy,10
same,Percent alive at day 30,[5]; WBI 10.4 Gy,40%
same,Percent dead at day 30,[5]; WBI 10.4 Gy,60%
same,The absolute number of animals alive at 30 days post WBI,[5]; WBI 10.4 Gy,4
same,Percent alive at day 30,[5]; WBI 11.0 Gy,0%
same,Percent dead at day 30,[5]; WBI 11.0 Gy,100%
same,The absolute number of animals alive at 30 days post WBI,[5]; WBI 11.0 Gy,0
MTR,"Sickness Score, individual mouse",[4]; [6],0
same,"Sickness Score, individual mouse",[4]; [7],0
same,"Sickness Score, individual mouse",[4]; [8],2
same,"Sickness Score, individual mouse",[4]; [9],2
same,"Sickness Score, individual mouse",[4]; [10],2 (4×) and 4 and 3
same,"Sickness Score, individual mouse",[4]; [11],dead and 3 and 2 (3×) and 4
same,"Sickness Score, individual mouse",[4]; [12],1 and 2 (2×) and 5 and 4 and 3
same,"Sickness Score, individual mouse",[4]; [13],3 and 2 (3×) and 5
same,"Sickness Score, individual mouse",[4]; [14],1 and 2 (2×) and dead and 4 and 5
same,"Sickness Score, individual mouse",[4]; [15],5 and 2 (2×) and 4 and dead
same,"Sickness Score, individual mouse",[4]; [16],1 (2×) and dead (2×) and 2
same,"Sickness Score, individual mouse",[4]; [17],dead (2×) and 2 (2×)
same,Survival %,[4]; [18],50%
same,Survival %,[4]; [19],33%
LQGV,Watery eyes,[1]; day 0 after irradiation,0/8
same,Weight loss,[1]; day 0 after irradiation,0/8
same,Mortality,[1]; day 0 after irradiation,0/8
same,Mortality,[1]; day 3 after irradiation,0/8
same,Watery eyes,[1]; day 4 after irradiation,0/8
same,Weight loss,[1]; day 4 after irradiation,8/8
same,Mortality,[1]; day 4 after irradiation,0/8
same,Mortality,[1]; day 5 after irradiation,0/8
same,Mortality,[1]; day 6 after irradiation,7/8
same,Mortality,[1]; day 7 after irradiation,8/8
same,Watery eyes,[2]; day 0 after irradiation,0/9
same,Weight loss,[2]; day 0 after irradiation,0/9
same,Mortality,[2]; day 0 after irradiation,0/9
same,Mortality,[2]; day 3 after irradiation,0/9
same,Watery eyes,[2]; day 4 after irradiation,3/9
same,Weight loss,[2]; day 4 after irradiation,9/9
same,Mortality,[2]; day 4 after irradiation,0/9
same,Mortality,[2]; day 5 after irradiation,1/9
same,Mortality,[2]; day 6 after irradiation,6/9
same,Mortality,[2]; day 7 after irradiation,9/9
